These results are taken from ChEMBL document CHEMBL1137935 (Bioorg Med Chem Lett, 2004).

Data set [1] can be described thus: Cmax after oral administration at a dose of 4 mg/kg in rat. In kind it is ADME, organism-based. Further details: dose 4 mg/kg, route oral. The settings on record: in vivo.
Data set [2] is described as follows: Plasma clearance after IV dosing at 1 mg/kg in rat. The class given is ADME, organism-based. Further details: dose 1 mg/kg, route intravenous. To be noted: read-out: Clp.
Data set [3] can be described thus: Elimination half-life after oral administration at a dose of 4 mg/kg in rat. The class given is ADME, organism-based. Further details: dose 4 mg/kg, route oral. The settings on record: in vivo.
A short description of data set [4]: Bioavailability after oral administration at a dose of 4 mg/kg in rat. In kind it is ADME, organism-based. The settings on record: in vivo.
In a further data set the target is T1, Adenosine receptor A1 (Cavia porcellus, UniProt P47745).
T1 sequence (P47745 whole entry): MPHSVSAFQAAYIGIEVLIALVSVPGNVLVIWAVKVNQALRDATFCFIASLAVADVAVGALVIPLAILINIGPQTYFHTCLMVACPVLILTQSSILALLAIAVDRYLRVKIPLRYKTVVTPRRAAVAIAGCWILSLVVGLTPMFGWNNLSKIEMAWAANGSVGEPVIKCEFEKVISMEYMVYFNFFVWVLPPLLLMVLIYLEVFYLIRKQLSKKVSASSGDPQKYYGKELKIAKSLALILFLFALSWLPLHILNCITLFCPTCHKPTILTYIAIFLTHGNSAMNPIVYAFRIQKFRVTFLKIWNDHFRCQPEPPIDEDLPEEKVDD
Briefly: Agonistic activity against adenosine A1 receptor in guinea pig isolated hearts. In kind it is functional.

Data set [5] concerns the target T2, Adenosine receptor A1 (Cavia porcellus) (UniProt P47745).
T2 sequence (whole entry): T1 sequence (P47745 whole entry)
Briefly: Binding affinity against […] using [35S]GTP-gamma-S, radioligand in guinea pig. The class given is functional. (In general: GTPγS resists hydrolysis and so accumulates on activated G proteins.)

Data set [6] in a line: Elimination half-life after IV dosing at 1 mg/kg in rat. In kind it is ADME, organism-based. Further details: dose 1 mg/kg, route intravenous. The settings on record: in vivo.
The target of data set [7] is T2, Adenosine receptor A1 (Cavia porcellus).
For data set [8] the target is unchanged. The source holds these as a separate data set.
Data set [9] can be described thus: Cmax after oral administration at a dose of 2 mg/kg in rat. In kind it is ADME, organism-based. Further details: dose 2 mg/kg, route oral. To be noted: in vivo.
A short description of data set [10]: Plasma clearance after IV dosing at 0.5 mg/kg in rat. Further details: dose 0.5 mg/kg, route intravenous. The class given is ADME, organism-based. To be noted: read-out: Clp.
Data set [11] is described as follows: Elimination half-life after IV dosing at 0.5 mg/kg in rat. In kind it is ADME, organism-based. On the set-up: dose 0.5 mg/kg, route intravenous. The settings on record: in vivo.
A short description of data set [12]: Elimination half-life after oral administration at a dose of 2 mg/kg in rat. The class given is ADME, organism-based. Further details: dose 2 mg/kg, route oral. The settings on record: in vivo.
Data set [13] in a line: Bioavailability after oral administration at a dose of 2 mg/kg in rat. In kind it is ADME, organism-based. The settings on record: in vivo.
The target in data set [14] is T2, Adenosine receptor A1 (Cavia porcellus). Briefly: Binding affinity against adenosine A1 receptor using [3H]CPX in guinea pig DDT membrane; 117+/-46.
Data set [15] has the same target. Briefly: Binding affinity against adenosine A1 receptor using [3H]CCPA in guinea pig DDT membrane; 12.7+/-1.5.
Data set [16] has the same target. This is another data set of the same source.
Data set [17] has the same target. This is another data set of the same source.
Data set [18] has the same target. Briefly: Binding affinity against adenosine A1 receptor using [3H]CPX in guinea pig DDT membrane; 604+/-241.

As for `OC1[C@@H](O)C(n2cnc3c(NC4CCOC4)ncnc32)O[C@@H]1CSc1ccccc1F` (single isomer, unassigned), in data set [1], the Cmax stood at 107 ng/mL. Also, the clearance in data set [2] came out at 69.4 mL/min/kg. The half-life in data set [3] was 78 min; in data set [6] it was 24 min. In data set [4], this compound returned a bioavailability of 12.3%. In addition, the EC50 at Adenosine receptor A1 is 1260 nM. The efficacy relative to CPA in data set [5] came out at 72%. In [7], this compound gave a Ki low of 506 nM. This compound also came in with a Ki high in data set [8] of 79 nM.

`OC1[C@@H](O)C(n2cnc3c(NC4CCOC4)ncnc32)O[C@@H]1COc1ccccc1F` (single isomer, unassigned) had a Cmax in data set [9] of 60.3 ng/mL. Also, in data set [10], the clearance turned out to be 202 mL/min/kg. In addition, the half-life in data set [11] is 18 min; in data set [12], 96 min. This compound also returned a bioavailability in data set [13] of 81%. The EC50 on Adenosine receptor A1 was found to be 200 nM. For the same compound, the Ki low in data set [14] stood at 117 nM. For the same compound, the Ki high in data set [15] amounted to 12.7 nM. In addition, in data set [5], the efficacy relative to CPA came out at 78%.

`Cc1cccc(Cl)c1SC[C@H]1OC(n2cnc3c(NC4CCOC4)ncnc32)[C@H](O)C1O` (single isomer, unassigned) displayed an efficacy relative to CPA in data set [5] of 18%. In data set [16], the Ki low was 7290 nM. The compound further gave a Ki high in data set [17] of 233 nM.

In the case of `OC1[C@@H](O)C(n2cnc3c(NC4CCOC4)ncnc32)O[C@@H]1COc1cccc(F)c1` (single isomer, unassigned), the Ki low in data set [18] is 604 nM. The efficacy relative to CPA in [5] worked out at 70%.

As usually defined, the Cmax is the highest concentration seen after dosing. Broadly, the half-life is the time needed for the level to fall by half in the phase considered. A higher half-life goes with slow loss. Usually bioavailability stands for the share of a dose that reaches the circulation, judged against a reference dose that is usually intravenous. For orientation: EC50 means the midpoint of the concentration-response curve.
